{
  "source": "PubChem BioAssay (NCI)",
  "assay_in_all_cases": "NCI anticancer screen, dose series, 384-well format",
  "key": {"[1]": {"tested_on": "SF-539 CNS"}, "[2]": {"tested_on": "A498 renal"}, "[3]": {"tested_on": "NCI-H522 lung"}, "[4]": {"tested_on": "LOX IMVI melanoma"}, "[5]": {"tested_on": "DU-145 prostate"}, "[6]": {"tested_on": "UACC-257 melanoma"}, "[7]": {"tested_on": "OVCAR-8 ovarian"}, "[8]": {"tested_on": "U251 glioblastoma"}, "[9]": {"tested_on": "SK-MEL-2 melanoma"}, "[10]": {"tested_on": "HL-60(TB) leukemia"}, "[11]": {"tested_on": "OVCAR-4 ovarian"}, "[12]": {"tested_on": "KM12 colon"}, "[13]": {"tested_on": "SNB-19 CNS"}, "[14]": {"tested_on": "CCRF-CEM leukemia"}, "[15]": {"tested_on": "COLO 205 colon"}, "[16]": {"tested_on": "NCI-H322M lung"}, "[17]": {"tested_on": "HOP-92 NSCLC"}, "[18]": {"tested_on": "NCI/ADR-RES ovarian"}, "[19]": {"tested_on": "HOP-62 NSCLC"}, "[20]": {"tested_on": "SW-620 colon"}, "[21]": {"tested_on": "CAKI-1 renal"}, "[22]": {"tested_on": "SK-OV-3 ovarian"}, "[23]": {"tested_on": "SK-MEL-5 melanoma"}, "[24]": {"tested_on": "HS 578T breast"}, "[25]": {"tested_on": "HCT-116 colon"}, "[26]": {"tested_on": "NCI-H460 NSCLC"}, "[27]": {"tested_on": "MCF7 breast"}, "[28]": {"tested_on": "RPMI-8226 leukemia"}, "[29]": {"tested_on": "NCI-H226 lung"}, "[30]": {"tested_on": "OVCAR-3 ovarian"}, "[31]": {"tested_on": "EKVX NSCLC"}, "[32]": {"tested_on": "HCT-15 colon"}, "[33]": {"tested_on": "MDA-MB-468 breast"}, "[34]": {"tested_on": "SNB-75 CNS"}, "[35]": {"tested_on": "RXF 393 renal"}, "[36]": {"tested_on": "HT29 colon"}, "[37]": {"tested_on": "BT-549 breast"}, "[38]": {"tested_on": "786-0 renal"}, "[39]": {"tested_on": "SF-268 CNS"}, "[40]": {"tested_on": "SN12C renal"}, "[41]": {"tested_on": "HCC-2998 colon"}, "[42]": {"tested_on": "PC-3 prostate"}, "[43]": {"tested_on": "M14 melanoma"}, "[44]": {"tested_on": "ACHN renal"}, "[45]": {"tested_on": "MDA-MB-231 breast"}, "[46]": {"tested_on": "IGROV1 ovarian"}, "[47]": {"tested_on": "MOLT-4 leukemia"}},
  "note": "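GI50 marks 50% less growth. The concentration for full growth arrest is given as TGI.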",
  "data": [
    {"smiles": "CCNC(=O)c1cc2c(-c3cc(C(C)(C)O)ccc3Oc3c(C)cc(F)cc3C)cn(C)c(=O)c2[nH]1", "values": [
      {"measurement": "GI50", "setting": "[1]", "value": 1530, "unit": "nM"},
      {"measurement": "TGI", "setting": "[1]", "value": 10.1, "unit": "µM"},
      {"measurement": "GI50", "setting": "[2]", "value": 1870, "unit": "nM"},
      {"measurement": "TGI", "setting": "[2]", "value": 13, "unit": "µM"},
      {"measurement": "GI50", "setting": "[3]", "value": 17.6, "unit": "nM"},
      {"measurement": "TGI", "setting": "[3]", "value": 933, "unit": "nM"},
      {"measurement": "GI50", "setting": "[4]", "value": 507, "unit": "nM"},
      {"measurement": "TGI", "setting": "[4]", "value": 1840, "unit": "nM"},
      {"measurement": "GI50", "setting": "[5]", "value": 2520, "unit": "nM"},
      {"measurement": "TGI", "setting": "[5]", "value": 14.7, "unit": "µM"},
      {"measurement": "GI50", "setting": "[6]", "value": 748, "unit": "nM"},
      {"measurement": "TGI", "setting": "[6]", "value": 10.4, "unit": "µM"},
      {"measurement": "GI50", "setting": "[7]", "value": 1120, "unit": "nM"},
      {"measurement": "TGI", "setting": "[7]", "value": 2550, "unit": "nM"},
      {"measurement": "GI50", "setting": "[8]", "value": 2540, "unit": "nM"},
      {"measurement": "TGI", "setting": "[8]", "value": 10.9, "unit": "µM"},
      {"measurement": "GI50", "setting": "[9]", "value": 139, "unit": "nM"},
      {"measurement": "TGI", "setting": "[9]", "value": 2850, "unit": "nM"},
      {"measurement": "GI50", "setting": "[10]", "value": 145, "unit": "nM"},
      {"measurement": "TGI", "setting": "[10]", "value": 618, "unit": "nM"},
      {"measurement": "GI50", "setting": "[11]", "value": 201, "unit": "nM"},
      {"measurement": "TGI", "setting": "[11]", "value": 870, "unit": "nM"},
      {"measurement": "GI50", "setting": "[12]", "value": 1420, "unit": "nM"},
      {"measurement": "TGI", "setting": "[12]", "value": 11.2, "unit": "µM"},
      {"measurement": "GI50", "setting": "[13]", "value": 2010, "unit": "nM"},
      {"measurement": "TGI", "setting": "[13]", "value": 13.2, "unit": "µM"},
      {"measurement": "GI50", "setting": "[14]", "value": 1030, "unit": "nM"},
      {"measurement": "TGI", "setting": "[14]", "value": 2370, "unit": "nM"},
      {"measurement": "GI50", "setting": "[15]", "value": 1100, "unit": "nM"},
      {"measurement": "TGI", "setting": "[15]", "value": 2750, "unit": "nM"},
      {"measurement": "GI50", "setting": "[16]", "value": 1610, "unit": "nM"},
      {"measurement": "TGI", "setting": "[16]", "value": 11.9, "unit": "µM"},
      {"measurement": "GI50", "setting": "[17]", "value": 1430, "unit": "nM"},
      {"measurement": "TGI", "setting": "[17]", "value": 11.8, "unit": "µM"},
      {"measurement": "GI50", "setting": "[18]", "value": 12.3, "unit": "µM"},
      {"measurement": "TGI", "setting": "[18]", "value": 26.1, "unit": "µM"},
      {"measurement": "GI50", "setting": "[19]", "value": 1030, "unit": "nM"},
      {"measurement": "TGI", "setting": "[19]", "value": 4.95, "unit": "µM"},
      {"measurement": "GI50", "setting": "[20]", "value": 2970, "unit": "nM"},
      {"measurement": "TGI", "setting": "[20]", "value": 15.6, "unit": "µM"},
      {"measurement": "GI50", "setting": "[21]", "value": 265, "unit": "nM"},
      {"measurement": "TGI", "setting": "[21]", "value": 10.7, "unit": "µM"},
      {"measurement": "GI50", "setting": "[22]", "value": 412, "unit": "nM"},
      {"measurement": "TGI", "setting": "[22]", "value": 3.74, "unit": "µM"},
      {"measurement": "GI50", "setting": "[23]", "value": 1270, "unit": "nM"},
      {"measurement": "TGI", "setting": "[23]", "value": 3.68, "unit": "µM"},
      {"measurement": "GI50", "setting": "[24]", "value": 125, "unit": "nM"},
      {"measurement": "TGI", "setting": "[24]", "value": 2020, "unit": "nM"},
      {"measurement": "GI50", "setting": "[25]", "value": 1370, "unit": "nM"},
      {"measurement": "TGI", "setting": "[25]", "value": 10.3, "unit": "µM"},
      {"measurement": "GI50", "setting": "[26]", "value": 2870, "unit": "nM"},
      {"measurement": "TGI", "setting": "[26]", "value": 12.4, "unit": "µM"},
      {"measurement": "GI50", "setting": "[27]", "value": 48.4, "unit": "nM"},
      {"measurement": "TGI", "setting": "[27]", "value": 1820, "unit": "nM"},
      {"measurement": "GI50", "setting": "[28]", "value": 12.5, "unit": "nM"},
      {"measurement": "TGI", "setting": "[28]", "value": 693, "unit": "nM"},
      {"measurement": "GI50", "setting": "[29]", "value": 1260, "unit": "nM"},
      {"measurement": "TGI", "setting": "[29]", "value": 11.5, "unit": "µM"},
      {"measurement": "GI50", "setting": "[30]", "value": 602, "unit": "nM"},
      {"measurement": "TGI", "setting": "[30]", "value": 2460, "unit": "nM"},
      {"measurement": "GI50", "setting": "[31]", "value": 3.23, "unit": "µM"},
      {"measurement": "TGI", "setting": "[31]", "value": 13.9, "unit": "µM"},
      {"measurement": "GI50", "setting": "[32]", "value": 1600, "unit": "nM"},
      {"measurement": "TGI", "setting": "[32]", "value": 5.23, "unit": "µM"},
      {"measurement": "GI50", "setting": "[33]", "value": 358, "unit": "nM"},
      {"measurement": "TGI", "setting": "[33]", "value": 2080, "unit": "nM"},
      {"measurement": "GI50", "setting": "[34]", "value": 1500, "unit": "nM"},
      {"measurement": "TGI", "setting": "[34]", "value": 10.3, "unit": "µM"},
      {"measurement": "GI50", "setting": "[35]", "value": 1220, "unit": "nM"},
      {"measurement": "TGI", "setting": "[35]", "value": 3.55, "unit": "µM"},
      {"measurement": "GI50", "setting": "[36]", "value": 1240, "unit": "nM"},
      {"measurement": "TGI", "setting": "[36]", "value": 13.4, "unit": "µM"},
      {"measurement": "GI50", "setting": "[37]", "value": 298, "unit": "nM"},
      {"measurement": "TGI", "setting": "[37]", "value": 1920, "unit": "nM"},
      {"measurement": "GI50", "setting": "[38]", "value": 1240, "unit": "nM"},
      {"measurement": "TGI", "setting": "[38]", "value": 12.3, "unit": "µM"},
      {"measurement": "GI50", "setting": "[39]", "value": 2290, "unit": "nM"},
      {"measurement": "TGI", "setting": "[39]", "value": 11.4, "unit": "µM"},
      {"measurement": "GI50", "setting": "[40]", "value": 3.23, "unit": "µM"},
      {"measurement": "TGI", "setting": "[40]", "value": 13.6, "unit": "µM"},
      {"measurement": "GI50", "setting": "[41]", "value": 542, "unit": "nM"},
      {"measurement": "TGI", "setting": "[41]", "value": 2030, "unit": "nM"},
      {"measurement": "GI50", "setting": "[42]", "value": 1410, "unit": "nM"},
      {"measurement": "TGI", "setting": "[42]", "value": 12.6, "unit": "µM"},
      {"measurement": "GI50", "setting": "[43]", "value": 1590, "unit": "nM"},
      {"measurement": "TGI", "setting": "[43]", "value": 16.9, "unit": "µM"},
      {"measurement": "GI50", "setting": "[44]", "value": 3.23, "unit": "µM"},
      {"measurement": "TGI", "setting": "[44]", "value": 15.1, "unit": "µM"},
      {"measurement": "GI50", "setting": "[45]", "value": 505, "unit": "nM"},
      {"measurement": "TGI", "setting": "[45]", "value": 12.1, "unit": "µM"},
      {"measurement": "GI50", "setting": "[46]", "value": 508, "unit": "nM"},
      {"measurement": "TGI", "setting": "[46]", "value": 2290, "unit": "nM"},
      {"measurement": "GI50", "setting": "[47]", "value": 432, "unit": "nM"},
      {"measurement": "TGI", "setting": "[47]", "value": 1900, "unit": "nM"}
    ]}
  ]
}
